Measurements published in US20250129095A1, “ANNULATED 2-AMINO-3-CYANO THIOPHENES AND DERIVATIVES FOR THE TREATMENT OF CANCER” (Boehringer Ingelheim Int'l GmbH Corp., priority 2021, published 2025).
pIC50: −log10 of the molar value.

Legend:
[1] = Plasma protein binding assay (PPB), equilibrium dialysis; assay type: in vitro ADME; conditions: bovine, 10% FCS in PBS, read-out: PPB 10% FCS (% fu)
Description: Binding of test compounds to plasma was determined using equilibrium dialysis (ED) and quantitative mass spectrometry interfaced with liquid chromatography (LC-MS). In brief, ED was performed with dialysis devices consisting of two chambers separated by a semipermeable membrane with a molecular weight cut-off of 5-10 kg/mol. One chamber was filled with 10% FCS in PBS containing 1-10 μmol/L test compound and the other chamber was filled with phosphate-buffer saline (PBS) with or without dextran. The dialysis chamber was incubated for 3-5 hours at 37° C. After incubation, protein was precipitated from aliquots of each chamber and the concentration of test compound in the supernatant of the plasma-containing compartment (cserum) and of the buffer-containing compartment (cbuffer) was determined by LC-MS. The fraction of unbound test compound (not bound to plasma) (fu) was calculated according to the following equation: […]

AsPC-1 cells = assay: AsPC-1 CTG proliferation assay (120 h) (pancreatic cancer, G12D); assay type: cell-based; conditions: Homo sapiens, ASPC1
Description: The CTG assay is designed to measure quantitatively the proliferation of AsPC-1 cells (ATCC CRL-5985), using the CellTiter Glow Assay Kit (Promega G7571). Cells are grown in RPMI medium (ATCC) supplemented with Fetal Calf Serum (Life Technologies, Gibco BRL, Cat. No. 10270-106). On “day 0” 2000 AsPC-1 cells are seeded in 60 μL RPMI ATCC+10% FCS+ Penstrep in a 384-well plate, flat and clear bottom (Greiner, PNr. 781091). Cells are then incubated in the plates at 37° C. in a CO2 incubator overnight. On day 1, compounds (10 mM stock in DMSO) are added with the ECHO acoustic liquid handler system (Beckman Coulter), including DMSO controls. Plates are incubated for 120 h, and cell viability is measured using CellTiter-Glo luminescent cell viability reagent (Promega product code G7570). Viability (stated as percent of control) is defined as relative luminescence units RLU of each well divided by the RLU of cells in DMSO controls.

NCI-H2122 cells = assay: NCI-H2122 CTG proliferation assay (120 h) (NSCLC, G12C); assay type: cell-based; conditions: Homo sapiens
Description: The CTG assay is designed to measure quantitatively the proliferation of NCI-H2122 cells (ATCC CRL-5985), using the CellTiter Glow Assay Kit (Promega G7571). Cells are grown in RPMI medium (ATCC) supplemented with Fetal Calf Serum (Life Technologies, Gibco BRL, Cat. No. 10270-106). On “day 0” 200 NCI-H2122 cells are seeded in 60 μL RPMI ATCC+10% FCS+Penstrep in a black 384-well plate, flat and clear bottom (Greiner, PNr. 781091). Cells are then incubated in the plates at 37° C. in a CO2 incubator overnight. On day 1, compounds (10 mM stock in DMSO) are added with the ECHO acoustic liquid handler system (Beckman Coulter), including DMSO controls. Plates are incubated for 120 h, and cell viability is measured using CellTiter-Glo luminescent cell viability reagent (Promega product code G7570). Viability (stated as percent of control) is defined as relative luminescence units RLU of each well divided by the RLU of cells in DMSO controls. […] values are determined from viability measurements by non-linear regression using a four parameter model. • AsPC-1 CTG proliieradon assay (120 h) (pancreatic cancer, G12D)

[2] = Metabolic (microsomal) stability assay, human liver microsomes (HLM); assay type: in vitro ADME; conditions: 1 μM, predicted clearance as percent of liver blood flow
Description: The metabolic degradation of the test compound is assayed at 37° C. with pooled liver microsomes (mouse (MLM), rat (RLM) or human (HLM)). The final incubation volume of 48 μL per time point contains TRIS buffer (pH 7.5; 0.1 M), magnesium chloride (6.5 mM), microsomal protein (0.5 mg/mL for mouse/rat, 1 mg/mL for human specimens) and the test compound at a final concentration of 1 μM. Following a short preincubation period at 37° C., the reactions are initiated by addition of 12 μL beta-nicotinamide adenine dinucleotide phosphate, reduced form (NADPH, 10 mM) and terminated by transferring an aliquot into solvent after different time points (0, 5, 15, 30, 60 min). Additionally, the NADPH-independent degradation is monitored in incubations without NADPH, terminated at the last time point by addition of acetonitrile. The quenched incubations are pelleted by centrifugation (4,000 rpm, 15 min). An aliquot of the supernatant is assayed by LC-MS/MS to quantify the concentration of parent compound in the individual samples.
In vitro intrinsic clearance (CLint, in vitro) is calculated from the time course of the disappearance of the test drug during the microsomal incubation. Each plot is fitted to the first-order elimination rate constant as C(t)=C0*exp(−ke*t), where C(t) and C0 are the concentration of unchanged test drug at incubation time t and that at preincubation and ke is the disappearance rate constant of the unchanged drug. Subsequently, CLint, in vitro (μL min^−1·amount protein) values are converted to predicted CLint, in vitro (mL min^−1·kg^−1) from incubation parameters according to the equation CLint, in vitro=CLint, in vitro×(incubation volume (ml)/amount protein (mg))×(amount protein (mg)/g liver tissue)×(liver weight/body wt.). For better across species comparison the predicted clearance is expressed as percent of the liver blood flow [% QH](mL min^−1·kg^−1) in the individual species. In general, high stability (corresponding to low % QH) of the compounds across species is desired.

SAS cells = assay: SAS CTG proliferation assay (120 h) (HNSCC, wt amplified); assay type: cell-based
Description: SAS cells (JCRB0260) are dispensed into 384-well plates, flat and clear bottom (Greiner, PNr. 781091) at a density of 300 cells per well in 60 μL DMEM:F12 (Gibco 31330-038)+10% Fetal Calf Serum (HyClone, PNr.: SH30084.03) and incubated at 37° C. in a CO2 incubator overnight The next day, compounds (10 mM stock in DMSO) are added with the ECHO acoustic liquid handler system (Beckman Coulter), including DMSO controls. Plates are incubated for 120 h, and cell viability is measured using CellTiter-Glo luminescent cell viability reagent (Promega product code G7570). Viability (stated as percent of control) is defined as relative luminescence units RLU of each well divided by the RLU of cells in DMSO controls.

Row | SMILES | fraction unbound [1] | pIC50 (AsPC-1 cells) | pIC50 (NCI-H2122 cells) | HLM QH [%] [2] | pIC50 (SAS cells)
1 | C[C@H](Oc1cc(O[C@@H]2CNC2(C)C)nc(-c2noc3c2CCC[C@@]32CCCc3sc(N)c(C#N)c32)n1)[C@@H]1C[C@@H](F)CN1C [II-31] | 0.31 | 7.60 | 5.92 | 37% | 6.40
2 | C[C@H](Oc1cc(O[C@@H]2CNC[C@@H]2F)nc(-c2noc3c2CCC[C@@]32CCCc3sc(N)c(C#N)c32)n1)[C@@H]1CCCN1C [II-29] | 0.52 | 6.37 | 6.14 | 28% | 5.98
3 | C[C@H](Oc1cc(N[C@H]2CCOC2)nc(-c2onc3c2CCC[C@@]32CCCc3sc(N)c(C#N)c32)n1)[C@@H]1CCCN1C [Example I-4] | 0.6 | 5.02 | 5.62 | 26% | 6.14
4 | C[C@H](Oc1cc(O[C@@H]2CNC2(C)C)nc(-c2noc3c2CCC[C@@]32CCCc3sc(N)c(C#N)c32)n1)[C@@H]1CCCN1C [II-9] | 0.52 | 7.31 | 5.90 | <24% | 6.75
5 | C[C@H](Oc1cc(N(C)CCN(C)C)nc(-c2noc3c2CCC[C@@]32CCCc3sc(N)c(C#N)c32)n1)[C@@H]1CCCN1C [II-20] | 0.8 | 5.45 | 5.33 | <24% | 6.49
6 | C[C@H](Oc1cc(Nc2ncco2)nc(-c2noc3c2CCC[C@@]32CCCc3sc(N)c(C#N)c32)n1)[C@@H]1CCCN1C [II-13] | 0.2 | 6.02 | 6.27 | <24% | 7.34
7 | C[C@H](Oc1cc(Nc2ccncn2)nc(-c2noc3c2CCC[C@@]32CCCc3sc(N)c(C#N)c32)n1)[C@@H]1CCCN1C [II-15] | 0.5 | 5.45 | 6.07 | <24% | 7.06
8 | COc1c(OCC2(N(C)C)COC2)nc(-c2noc3c2CCC[C@@]32CCCc3sc(N)c(C#N)c32)nc1O[C@@H](C)[C@@H]1CCCN1C [II-25] | 0.48 | 6.24 | 6.41 | 46% | 7.26
9 | COC[C@H](C)Nc1cc(O[C@@H](C)[C@@H]2CCCN2C)nc(-c2onc3c2CCC[C@@]32CCCc3sc(N)c(C#N)c32)n1 [Example I-5] | 0.45 |  |  | <24% | 
10 | C[C@H](Oc1cc(Oc2cncnc2)nc(-c2onc3c2CCC[C@@]32CCCc3sc(N)c(C#N)c32)n1)[C@@H]1CCCN1C [Example I-3] | 0.57 | 6.17 | 5.64 | 69% | 7.85
11 | C[C@H](Oc1cc(Nc2cnccn2)nc(-c2noc3c2CCC[C@@]32CCCc3sc(N)c(C#N)c32)n1)[C@@H]1CCCN1C [II-14] | 0.1 | 5.50 | 5.85 | <24% | 6.55
12 | C[C@H](Oc1cc(N(C)C)nc(-c2noc3c2CCC[C@@]32CCCc3sc(N)c(C#N)c32)n1)[C@@H]1CCCN1C [II-10] | 0.08 | 5.71 | 5.62 | <24% | 6.10
13 | CO[C@@H]1C[C@@H]([C@H](C)Oc2cc(O[C@@H]3CNC3(C)C)nc(-c3noc4c3CCC[C@@]43CCCc4sc(N)c(C#N)c43)n2)N(C)C1 [II-30] | 0.3 | 7.44 | 5.91 | 37% | 6.57
14 | C[C@H](Oc1cc(Oc2ccon2)nc(-c2noc3c2CCC[C@@]32CCCc3sc(N)c(C#N)c32)n1)[C@@H]1CCCN1C [II-3] | 0.12 | 5.70 | 6.56 | 70% | 7.17
15 | C[C@H](Oc1cc(O[C@H]2CNC(C)(C)C2)nc(-c2noc3c2CCC[C@@]32CCCc3sc(N)c(C#N)c32)n1)[C@@H]1CCCN1C (single isomer, unassigned) [II-8] | 0.59 | 5.76 | 5.87 | <24% | 5.59
16 | C[C@H](Oc1cc(OCC2(N(C)C)COC2)nc(-c2onc3c2CCC[C@@]32CCCc3sc(N)c(C#N)c32)n1)[C@@H]1CCCN1C [Example I-8] | 0.45 | 6.57 | 5.90 | 30% | 7.29
17 | C[C@H](Oc1cc(Oc2cncnc2)nc(-c2noc3c2CCC[C@@]32CCCc3sc(N)c(C#N)c32)n1)[C@@H]1CCCN1C [II-1] | 0.19 | 6.16 | 6.15 | <24% | 7.70
18 | C[C@H](Oc1cc(Oc2nccs2)nc(-c2noc3c2CCC[C@@]32CCCc3sc(N)c(C#N)c32)n1)[C@@H]1CCCN1C [II-2] | 0.07 | 5.74 | 7.11 | 46% | 7.36
19 | C[C@H](Oc1cc(O[C@H]2CN(C)C(C)(C)C2)nc(-c2noc3c2CCC[C@@]32CCCc3sc(N)c(C#N)c32)n1)[C@@H]1CCCN1C [II-19] | 0.12 | 5.85 | 5.84 | <24% | 6.53
20 | C[C@H](Oc1cc(Oc2cnccn2)nc(-c2noc3c2CCC[C@@]32CCCc3sc(N)c(C#N)c32)n1)[C@@H]1CCCN1C [II-7] | 0.28 | 5.52 | 6.00 | 72% | 5.86
21 | C[C@H](Oc1cc(Oc2nccs2)nc(-c2onc3c2CCC[C@@]32CCCc3sc(N)c(C#N)c32)n1)[C@@H]1CCCN1C [Example I-1] | 0.25 | 5.60 | 5.83 | 44% | 7.72
22 | C[C@H](Oc1cc(Nc2ccccn2)nc(-c2noc3c2CCC[C@@]32CCCc3sc(N)c(C#N)c32)n1)[C@@H]1CCCN1C [II-16] | 0.37 |  |  | 42% | 
